# Data from US7267670B2, “Reinforced urethral suppository” (priority 2001, dated 2007).
# Tested on: over active bladder
# Conditions: oral, 5 mg pills three times per day
# Method: Their doctor prescribes an anti-cholinergic agent, oxybutynin chloride, taken orally three times per day in 5 mg pills.
# Alternatively, their doctor prescribes an oxybutynin urethral suppository of the invention. Before leaving home, they open the individually wrapped suppository, grasping it by the handle; they insert the meltable portion, containing up to 5 mg of oxybutynin chloride, into their urethra. […] If necessary, the person can remove the remaining portions of the suppository and insert a new suppository to prevent uncontrolled voiding episodes.
smiles,measurement,setting,value
CCN(CC)CC#CCOC(=O)C(O)(c1ccccc1)C1CCCCC1 (centres unmarked) [oxybutynin chloride],effect on uncontrolled voiding episodes,patient one,eliminates the uncontrolled voiding episodes
same,side effects,patient two,severe dry mouth and dizziness
